Experimental data reported in patent US9447044B2, “Thioaryl derivatives as GPR120 agonists” (LG LIFE SCIENCES LTD., priority 2012, dated 2016).

Molecular target: T1, hGPR120 (Homo sapiens, UniProt Q5NUL3)
T1 construct: expressed in transfected cells; host or cells: CHO-K1
T1 sequence (Q5NUL3 1-361): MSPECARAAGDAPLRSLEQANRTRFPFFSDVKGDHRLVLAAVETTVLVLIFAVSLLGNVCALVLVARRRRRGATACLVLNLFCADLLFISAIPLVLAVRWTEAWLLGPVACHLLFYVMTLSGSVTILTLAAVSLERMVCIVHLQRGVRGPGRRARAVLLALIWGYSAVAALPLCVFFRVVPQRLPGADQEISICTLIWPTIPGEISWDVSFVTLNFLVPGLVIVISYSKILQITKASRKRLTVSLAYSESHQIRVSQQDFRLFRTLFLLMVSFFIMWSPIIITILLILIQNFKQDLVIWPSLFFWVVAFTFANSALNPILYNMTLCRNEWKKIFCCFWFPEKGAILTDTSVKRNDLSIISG
Assay: Measurement of activity of GPR120 agonist (cell-based assay), calcium fluorescence
Conditions: CHO-K1 cells expressing Ga16 and hGPR120, Calcium 5 dye fluorescence
In short: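 CHO-K1 cells co-expressing Gα16 and hGPR120, loaded with Calcium 5 dye for 1 h at 37° C, received serially diluted agonists (final 0.5% DMSO). Fluorescence (Ex 485/Em 525 nm) was expressed as relative percent over 0.1% DMSO-only wells; activity binned as A >20 μM, B 20–2 μM, C 2–0.2 μM, D <0.2 μM.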

`O=C(O)C1CC1c1cc(F)c(OCc2cccc(SC3CCC3)n2)c(F)c1` (stereo not drawn) [Example 75, 2-[4-(6-cyclobutylsulfanyl-pyridin-2-ylmethoxy)-3,5-difluoro-phenyl]-cyclopropane carboxylic acid] was tested, and the EC50 (activity class) was < 200 nM.

For `CC(C)Sc1ncccc1COc1c(F)cc(CC(C)C(=O)O)cc1F` (stereo not drawn) [Example 41, 3-[3,5-difluoro-4-(2-isopropylsulfanyl-pyridin-3-ylmethoxy)-phenyl]-2-methyl-propionic acid], the EC50 (activity class) was < 200 nM.

For `CCCSc1ncccc1COc1c(F)cc(C2CC2C(=O)O)cc1F` (stereo not drawn) [Example 139, 2-[3,5-difluoro-4-(2-propylsulfanyl-pyridin-3-ylmethoxy)-phenyl]-cyclopropane carboxylic acid], the EC50 (activity class) was < 200 nM.

`CCCSc1ncccc1COc1ccc(CC(C)C(=O)O)cc1Cl` (stereo not drawn) [Example 92, 3-[3-chloro-4-(2-propylsulfanyl-pyridin-3-ylmethoxy)-phenyl]-2-methyl-propionic acid] was tested, and the EC50 (activity class) was < 200 nM.

With `COc1cc(CCC(=O)O)ccc1OCc1cccc(SC(C)C)n1` [Example 72, 3-[4-(6-isopropylsulfanyl-pyridin-2-ylmethoxy)-3-methoxy-phenyl]-propionic acid] the EC50 (activity class) was < 200 nM.

`CCCSc1ncccc1COc1ccc(C2CC2C(=O)O)cc1F` (single isomer, unassigned) [Example 119, 2-[3-fluoro-4-(2-propylsulfanyl-pyridin-3-ylmethoxy)-phenyl]-cyclopropane carboxylic acid] was tested, and the EC50 (activity class) was < 200 nM.

For `CCCSc1ncccc1COc1ccc(CCC(=O)O)cc1F` [Example 144, 3-[3-fluoro-4-(2-propylsulfanyl-pyridin-3-ylmethoxy)-phenyl]-propionic acid], the EC50 (activity class) was < 200 nM.

In the case of `CC(C)Sc1nccnc1COc1c(F)cc(CCC(=O)O)cc1F` [Example 20, 3-[3,5-difluoro-4-(3-isopropylsulfanyl-pyrazin-2-ylmethoxy)-phenyl]-propionic acid], the EC50 (activity class) is reported as 200 to 2000 nM.

Compound `O=C(O)C1CC1c1cc(F)c(OCc2cccnc2SCC2CC2)c(F)c1` (single isomer, unassigned) [Example 136, 2-[4-(2-cyclopropylmethylsulfanyl-pyridin-3-ylmethoxy)-3,5-difluoro-phenyl]-cyclopropane carboxylic acid] has an EC50 (activity class) of 200 to 2000 nM.

With `O=C(O)CCc1cc(F)c(OCc2cccnc2SCC2CC2)c(F)c1` [Example 17, 3-[4-(2-cyclopropylmethylsulfanyl-pyridin-3-ylmethoxy)-3,5-difluoro-phenyl]-propionic acid] the EC50 (activity class) was < 200 nM.

`Cc1c(CCC(=O)O)ccc(OCc2cccnc2SC2CCCC2)c1C` [Example 80, 3-[4-(2-cyclopentylsulfanyl-pyridin-3-ylmethoxy)-2,3-dimethyl-phenyl]-propionic acid] was tested, and the EC50 (activity class) was < 200 nM.

In the case of `CC(Cc1ccc(OCc2cccnc2SC2CCCC2)c(F)c1)C(=O)O` (stereo not drawn) [Example 38, 3-[4-(2-cyclopentylsulfanyl-pyridin-3-ylmethoxy)-3-fluoro-phenyl]-2-methyl-propionic acid], the EC50 (activity class) is reported as < 200 nM.

`O=C(O)C1CC1c1ccc(OCc2cccnc2SC2CCCC2)cc1F` (stereo not drawn) [Example 174] showed an EC50 (activity class) of 200 to 2000 nM.

For `O=C(O)C1CC1c1cc(F)c(OCc2cccc(SCC3CC3)n2)c(F)c1` (stereo not drawn) [Example 153, 2-[4-(6-cyclopropylmethylsulfanyl-pyridin-2-ylmethoxy)-3,5-difluoro-phenyl]-cyclopropane carboxylic acid], the EC50 (activity class) was < 200 nM.

In the case of `O=C(O)C[C@@H]1COc2cc(OCc3cccnc3SC3CCCC3)ccc21` [Example 81, [(S)-6-(2-cyclopentylsulfanyl-pyridin-3-ylmethoxy)-2,3-dihydro-benzofuran-3-yl]-acetic acid], the EC50 (activity class) is reported as < 200 nM.

`O=C(O)C1CC1Cc1cc(F)c(OCc2cccc(SC3CCCC3)n2)c(F)c1` (stereo not drawn) [Example 110, 2-[4-(6-cyclopentylsulfanyl-pyridin-2-ylmethoxy)-3,5-difluoro-benzyl]-cyclopropane carboxylic acid] showed an EC50 (activity class) of 200 to 2000 nM.

In the case of `O=C(O)C1CC1c1ccc(OCc2cccc(SC3CCCC3)n2)c(F)c1` (single isomer, unassigned) [Example 168, 2-[4-(6-cyclopentylsulfanyl-pyridin-2-ylmethoxy)-3-fluoro-phenyl]-cyclopropane carboxylic acid], the EC50 (activity class) is reported as < 200 nM.

With `CC(C)Sc1ncccc1COc1ccc(CCC(=O)O)cc1F` [Example 6, 3-[3-fluoro-4-(2-isopropylsulfanyl-pyridin-3-ylmethoxy)-phenyl]-propionic acid] the EC50 (activity class) was < 200 nM.

With `O=C(O)C1CC1c1cc(F)c(OCc2cccc(SC3CCC3)n2)c(F)c1` (stereo not drawn) [Example 155, 2-[4-(6-cyclobutylsulfanyl-pyridin-2-ylmethoxy)-3,5-difluoro-phenyl]-cyclopropane carboxylic acid] the EC50 (activity class) was < 200 nM.

In the case of `CC(C)Sc1ncccc1COc1ccc(CCCC(=O)O)cc1` [Example 13, 4-[4-(2-isopropylsulfanyl-pyridin-3-ylmethoxy)-phenyl]-butyric acid], the EC50 (activity class) is reported as < 200 nM.

For `O=C(O)C1CC1c1ccc(OCc2cccc(SC3CCCC3)n2)c(F)c1` (stereo not drawn) [Example 85, 2-[4-(6-cyclopentylsulfanyl-pyridin-2-ylmethoxy)-3-fluoro-phenyl]-cyclopropane carboxylic acid], the EC50 (activity class) was < 200 nM.

With `CCC(C)Sc1ncccc1COc1ccc(CC(C)C(=O)O)cc1F` (stereo not drawn) [Example 39, 3-[4-(2-sec-butylsulfanyl-pyridin-3-ylmethoxy)-3-fluoro-phenyl]-2-methyl-propionic acid] the EC50 (activity class) was < 200 nM.

For `O=C(O)Cc1coc2c(F)c(OCc3cccnc3SC3CCCC3)c(F)cc12` [Example 122, [6-(2-cyclopentylsulfanyl-pyridin-3-ylmethoxy)-5,7-difluoro-benzofuran-3-yl]-acetic acid], the EC50 (activity class) was < 200 nM.

With `O=C(O)CCc1ccc(OCc2cccc(SC3CCCC3)n2)c(F)c1` [Example 150, 3-[4-(6-cyclopentylsulfanyl-pyridin-2-ylmethoxy)-3-fluoro-phenyl]-propionic acid] the EC50 (activity class) was < 200 nM.

With `O=C(O)CCc1ccc(OCc2cccnc2SC2CCCC2)c(F)c1` [Example 146, 3-[4-(2-cyclopentylsulfanyl-pyridin-3-ylmethoxy)-3-fluoro-phenyl]-propionic acid] the EC50 (activity class) was < 200 nM.

`CC(C)Sc1ncccc1COc1ccc(C2CC2C(=O)O)cc1F` (stereo not drawn) [Example 162, 2-[3-fluoro-4-(2-isopropylsulfanyl-pyridin-3-ylmethoxy)-phenyl]-cyclopropane carboxylic acid] was tested, and the EC50 (activity class) was < 200 nM.

Compound `Cc1ncc(COc2c(F)cc(CCC(=O)O)cc2F)c(SC(C)C)n1` [Example 71, 3-[3,5-difluoro-4-(4-isopropylsulfanyl-2-methyl-pyrimidin-5-ylmethoxy)-phenyl]-prop ionic acid] has an EC50 (activity class) of 200 to 2000 nM.

For `COc1ccc(COc2ccc(C3CC3C(=O)O)cc2Cl)c(SC(C)C)n1` (stereo not drawn) [Example 109, 2-[3-chloro-4-(2-isopropylsulfanyl-6-methoxy-pyridin-3-ylmethoxy)-phenyl]-cyclopropane carboxylic acid], the EC50 (activity class) was 200 to 2000 nM.

`Cc1ccc(COc2ccc(CCC(=O)O)cc2Cl)c(SC2CCCC2)n1` [Example 161, 3-[3-chloro-4-(2-cyclopentylsulfanyl-6-methyl-pyridin-3-ylmethoxy)-phenyl]-propionic acid] was tested, and the EC50 (activity class) was 200 to 2000 nM.

`O=C(O)CCc1cc(F)c(OCc2cccnc2SC2CCCCC2)c(F)c1` [Example 22, 3-[4-(2-cyclohexylsulfanyl-pyridin-3-ylmethoxy)-3,5-difluoro-phenyl]-propionic acid] was tested, and the EC50 (activity class) was 200 to 2000 nM.

For `CC(C)Sc1ncccc1COc1ccc(CCC(=O)O)cc1` [Example 2, 3-[4-(2-isopropylsulfanyl-pyridin-3-ylmethoxy)-phenyl]-propionic acid], the EC50 (activity class) was < 200 nM.

`CC(C)Sc1nccc(COc2c(F)cc(CCC(=O)O)cc2F)n1` [Example 24, 3-[3,5-difluoro-4-(2-isopropylsulfanyl-pyrimidin-4-ylmethoxy)-phenyl]-propionic acid] gave an EC50 (activity class) of 200 to 2000 nM.

`O=C(O)CCc1cc(F)c(OCc2cccnc2SC2CCCC2)c(F)c1` [Example 12, 3-[4-(2-cyclopentylsulfanyl-pyridin-3-ylmethoxy)-3,5-difluoro-phenyl]-propionic acid] showed an EC50 (numeric value) of 58 nM.

Work on `O=C(O)CCc1cc(F)c(OCc2cccnc2SCCC(F)(F)F)c(F)c1` [Example 27, 3-{3,5-difluoro-4-[2-(3,3,3-trifluoro-propylsulfanyl)-pyridin-3-ylmethoxy]-phenyl}-propionic acid] yielded an EC50 (activity class) of 200 to 2000 nM.

`CCc1ccc(COc2c(F)cc(CCC(=O)O)cc2F)c(SC(C)C)n1` [Example 32] gave an EC50 (activity class) of 200 to 2000 nM.

In the case of `CC(C)Sc1ncccc1COc1ccc(CCC(=O)O)c(F)c1` [Example 7, 3-[2-fluoro-4-(2-isopropylsulfanyl-pyridin-3-ylmethoxy)-phenyl]-propionic acid], the EC50 (activity class) is reported as < 200 nM.

In the case of `Cc1c(OCc2cccnc2SC2CCC2)ccc(C2CC2C(=O)O)c1C` (stereo not drawn) [Example 113, 2-[4-(2-cyclobutylsulfanyl-pyridin-3-ylmethoxy)-2,3-dimethyl-phenyl]-cyclopropane carboxylic acid], the EC50 (activity class) is reported as > 20000 nM.

With `O=C(O)C1CC1c1cc(F)c(OCc2cccnc2SC2CCC2)c(F)c1` (stereo not drawn) [Example 36, 2-[4-(2-cyclobutylsulfanyl-pyridin-3-ylmethoxy)-3,5-difluoro-phenyl]-cyclopropane carboxylic acid] the EC50 (activity class) was < 200 nM.

For `CC(C)(C)CSc1ncccc1COc1c(F)cc(CCC(=O)O)cc1F` [Example 28, 3-{4-[2-(2,2-dimethyl-propylsulfanyl)-pyridin-3-ylmethoxy]-3,5-difluoro-phenyl}-propionic acid], the EC50 (activity class) was 200 to 2000 nM.
